Test results as given in patent US6110955A, “Metabolically stabilized oxyalkylene esters and uses thereof” (Beacon Laboratories, Inc., priority 1997, dated 2000).

Tests used:
[1] = test system: human neuroblastoma cell lines; assay: Clonogenicity across the neuroblastoma cell lines (summary); format: cell-based
Procedure: (§1) Inhibition of cancer cell growth in agar culture--clonogenicity was tested using cell lines as follows:
(§2) Cells were harvested, washed in complete media, and counted.
(§3) After overnight culture, AB or α-methyl-4-(2-methylpropyl)-benzeneacetyloxymethyl butyrate was added at the indicated concentration. The control cells received media alone.

[2] = test system: LOX IMVI; assay: Inhibition of cancer cell growth, sulforhodamine B (SRB) method; format: cell-based; settings: Homo sapiens
Procedure: (§4) Inhibition of cancer cell growth was measured by the sulforhodamine B (SRB) method as described by Monks et al., J. Nat. Canc. Inst., (1991), 83: 757-766, incorporated herein in its entirety. The SRB assay is recognized by the National Institute for Cancer (NCI) as a reliable screen for anticancer drugs and is used by the NCI for this purpose. […] (FIGS. 3A-3D).

[3] = test system: OVCAR-5; assay: as above; format: cell-based; settings: Homo sapiens
Procedure: as §4

[4] = test system: MCF7; assay: as above; format: cell-based; settings: Homo sapiens
Procedure: as §4

[5] = test system: CFPAC; assay: as above; format: cell-based; settings: Homo sapiens
Procedure: as §4

[6] = test system: NBAS-5; assay: Clonogenicity in soft agar (growth inhibition); format: cell-based, human; settings: Homo sapiens
Procedure: as §1, §2, §3

[7] = test system: IMR-32; assay: Clonogenicity in soft agar (growth inhibition); format: cell-based, human; settings: Homo sapiens, read-out: clones relative to media-treated control cultures
Procedure: as §1, §2, §3

[8] = test system: SK-N-SH; assay: Clonogenicity in soft agar (growth inhibition); format: cell-based, human; settings: Homo sapiens, read-out: clones relative to media-treated control cultures
Procedure: as §1, §2, §3

[9] = test system: NBL-S; assay: Clonogenicity in soft agar (growth inhibition); format: cell-based, human; settings: Homo sapiens
Procedure: as §1, §2, §3

[10] = test system: β-globin disorders (β-thalassemia and sickle-cell anemia); settings: β-thalassemia and sickle-cell anemia patients; cited from earlier work

In the case of `CCCC(=O)O` [AB, arginine butyrate, reference compound], the “inhibition of clonogenicity (in words)” value [1] is reported as “dose-dependent manner”, the inhibition at 31.25 pM ([2]; dosage 0.03125 nM) is reported as 0% and the inhibition at 62.5 pM ([2]; dosage 0.06250 nM) is reported as 1.4%. The inhibition at 0.000125 µM ([2]; dosage 0.12500 nM) was 1.5%, the inhibition at 0.00025 µM ([2]; dosage 0.25000 nM) was 3.1% and the inhibition at 0.0005 µM ([2]; dosage 0.50000 nM) was 1.8%. For the same compound, the inhibition at 0.001 µM ([2]; dosage 1.00000 nM) was 11.8%, the inhibition at 0.002 µM ([2]; dosage 2.00000 nM) was 10.7% and the inhibition at 0.004 µM ([2]; dosage 4.00000 nM) was 23.3%. For the same compound, the inhibition at 31.25 pM ([3]; OVCAR-5, dosage 0.03125 nM) was 0%, the inhibition at 62.5 pM ([3]; OVCAR-5, dosage 0.06250 nM) was 0.1% and the inhibition at 0.000125 µM ([3]; OVCAR-5, dosage 0.12500 nM) was 0.5%. It also gave an inhibition at 0.00025 µM ([3]; OVCAR-5, dosage 0.25000 nM) of 0.3%, an inhibition at 0.0005 µM ([3]; OVCAR-5, dosage 0.50000 nM) of 1.3% and an inhibition at 0.001 µM ([3]; OVCAR-5, dosage 1.00000 nM) of 2.5%. The inhibition at 0.002 µM ([3]; OVCAR-5, dosage 2.00000 nM) was 6.6%, the inhibition at 0.004 µM ([3]; OVCAR-5, dosage 4.00000 nM) was 29.3% and the inhibition at 31.25 pM ([4]; MCF7, dosage 0.03125 nM) was 0.3%. For the same compound, the inhibition at 62.5 pM ([4]; MCF7, dosage 0.06250 nM) was 0.2%, the inhibition at 0.000125 µM ([4]; MCF7, dosage 0.12500 nM) was 0% and the inhibition at 0.00025 µM ([4]; MCF7, dosage 0.25000 nM) was 0.1%. It also gave an inhibition at 0.0005 µM ([4]; MCF7, dosage 0.50000 nM) of 0%, an inhibition at 0.001 µM ([4]; MCF7, dosage 1.00000 nM) of 1.2% and an inhibition at 0.002 µM ([4]; MCF7, dosage 2.00000 nM) of 1.8%. The inhibition at 0.004 µM ([4]; MCF7, dosage 4.00000 nM) was 2.2%, the inhibition at 31.25 pM ([5]; dosage 0.03125 nM) was 6.6% and the inhibition at 62.5 pM ([5]; dosage 0.06250 nM) was 4.8%. It also gave an inhibition at 0.000125 µM ([5]; dosage 0.12500 nM) of 11.3%, an inhibition at 0.00025 µM ([5]; dosage 0.25000 nM) of 1% and an inhibition at 0.0005 µM ([5]; dosage 0.50000 nM) of 1.5%. It also gave an inhibition at 0.001 µM ([5]; dosage 1.00000 nM) of 4.7%, an inhibition at 0.002 µM ([5]; dosage 2.00000 nM) of 12.8% and an inhibition at 0.004 µM ([5]; dosage 4.00000 nM) of 16.6%. It also gave an IC50 ([6]; NBAS-5) of 833 µM, an activity at 100 µM ([6]; NBAS-5, 100 μM, read-out: clones relative to media-treated control cultures) of 85 ± 1% and an activity at 250 µM ([6]; NBAS-5, 250 μM, read-out: clones relative to media-treated control cultures) of 78 ± 2%. For the same compound, the activity at 500 µM ([6]; NBAS-5, 500 μM, read-out: clones relative to media-treated control cultures) was 68 ± 2%, the activity at 1000 µM ([6]; NBAS-5, 1000 μM, read-out: clones relative to media-treated control cultures) was 53% and the activity at 2000 µM ([6]; NBAS-5, 2000 μM, read-out: clones relative to media-treated control cultures) was 25%. It also gave an activity at 100 µM ([7]; IMR-32, 100 μM) of 108%, an activity at 250 µM ([7]; IMR-32, 250 μM) of 104% and an activity at 500 µM ([7]; IMR-32, 500 μM) of 69 ± 7%. The activity at 1000 µM ([7]; IMR-32, 1000 μM) was 49%, the activity at 2000 µM ([7]; IMR-32, 2000 μM) was 21% and the activity at 100 µM ([8]; 100 μM) was 99 ± 1%. For the same compound, the activity at 250 µM ([8]; 250 μM) was 81 ± 1%, the activity at 500 µM ([8]; 500 μM) was 75 ± 9% and the activity at 1000 µM ([8]; 1000 μM) was 54 ± 2%. The activity at 2000 µM ([8]; 2000 μM) was 24 ± 1%, the IC50 [9] was 701 µM and the IC90 [9] was 2000 µM. For the same compound, the reported side effects [10] was “hypokalemia, headache, nausea and vomiting”.
